Here are results for one molecule from patent US11969433B2, “Compositions and methods for muscle regeneration using prostaglandin E2” (The Board of Trustees of the Leland Stanford Junior …, priority 2016, dated 2024).

Test [1] deals with MuSCs. The test is described as follows: Young MuSC numbers after acute PGE2 treatment, hydrogel culture (hemocytometer count). The test is classed as cell-based, mouse. The conditions noted are these: young MuSCs, acute 1-day exposure, PGE2 10 ng/ml, one week later. As for the experimental part: (§1) Following isolation, we resuspended MuSCs in myogenic cell culture medium containing DMEM/F10 (50:50), 15% FBS, 2.5 ng ml^−1 fibroblast growth factor-2 (FGF-2 also known as bFGF) and 1% penicillin-streptomycin. We seeded MuSC suspensions at a density of 500 cells per cm^2 surface area. We maintained cell cultures at 37° C. in 5% CO2 and changed medium daily. […]
(§2) To assay proliferation, we used three different assays (hemocytometer, VisionBlue, and EdU). […] For hemocytometer cell number count, we collected cells at indicated timepoints by incubation with 0.5% trypsin in PBS for 5 min at 37° C. and quantified them using a hemocytometer at least 3 times. Additionally, we used the VisionBlue Quick Cell Viability Fluorometric Assay Kit (BioVision, catalog #K303) as a readout for cell growth in culture. Briefly, we incubated MuSCs with 10% VisionBlue in culture medium for 3 h, and measured fluorescence intensity on a fluorescence plate reader (Infinite M1000 PRO, Tecan) at Ex=530-570 nm, Em=590-620 nm. […] We quantified EdU positive cells using the MetaMorph Image Analysis software (Molecular Devices). Data analyses were blinded, where researchers performing cell scoring were unaware of the treatment condition given to sample groups analyzed.

A further test deals with gastrocnemius muscles. The test is described as follows: Specific twitch force after treadmill run to exhaustion, aged mice (Example 2). The test is classed as in vivo, mouse. The conditions noted are these: aged mice 18 months, 3 nM PGE2 after each of 10 daily runs, 4 weeks after last run. As for the experimental part:
The aged mice (18 months old) were subject to treadmill run to exhaustion daily for 10 days. The treadmill run was performed using the Exer3/6 (Columbus Instruments). Mice ran on the treadmill at 20 degrees downhill, starting at a speed of 10 meters/min. After 3 min, the speed was increased 1 meter/min to a final speed of 20 meters/min. Exhaustion was defined as the inability of the animal to remain on the treadmill despite electrical prodding. 2 h after each treadmill run, both gastrocnemius muscles of each mouse were injected with either PBS (control group) or 3 nM PGE2 (experimental group). The force measurement was performed 4 weeks after the last treadmill run using a […]-LR force transducer (Aurora Scientific) with a single 0.1 ms pulse at predetermined supramaximal stimulation intensity. The muscle force and synchronization pulses were recorded via a PCI-6251 acquisition card (National Instruments) and analyzed using Matlab. FIGS. 4O-4P show the specific muscle force values that were calculated by normalizing the force measurements with the muscle physiological cross-sectional area. […] Five repetitive measurements were made from each muscle. N=4 for the control group and n=5 for the PGE2 injected group. ** represents a statistical significant value of p<0.005 by 2-tailed Mann Whitney test.

The subject of the next test is aged MuSCs. Kind of test: Aged MuSC numbers after acute 24 hr treatment, hydrogel culture. The conditions noted are these: 1-day pulse; PGE2 10 ng/ml or SW033291 1 μM; assayed day 7. The test is classed as cell-based, mouse. As for the experimental part: as §1, §2
In test [2] the test system is MuSCs. The test is described as follows: MuSC proliferation in charcoal stripped serum medium. The conditions noted are these: PGE2 10 ng/ml every two days, 7 days. The test is classed as cell-based, mouse. As for the experimental part:
as §1, §2

Test [3] concerns MuSCs. Kind of test: EdU incorporation proliferation assay. The test is classed as cell-based, mouse. The settings on record: young MuSCs, PGE2 10 ng/ml. As for the experimental part: To assay proliferation, we used three different assays (hemocytometer, VisionBlue, and EdU). For each, we seeded MuSCs on flat hydrogels (hemocytometer and VisionBlue) or collagen-coated plates (EdU assay) at a density of 500 cells per cm^2 surface area. For hemocytometer cell number count, we collected cells at indicated timepoints by incubation with 0.5% trypsin in PBS for 5 min at 37° C. and quantified them using a hemocytometer at least 3 times. Additionally, we used the VisionBlue Quick Cell Viability Fluorometric Assay Kit (BioVision, catalog #K303) as a readout for cell growth in culture. Briefly, we incubated MuSCs with 10% VisionBlue in culture medium for 3 h, and measured fluorescence intensity on a fluorescence plate reader (Infinite M1000 PRO, Tecan) at Ex=530-570 nm, Em=590-620 nm. We assayed proliferation using the Click-iT EdU Alexa Fluor 555 Imaging kit (Life Technologies). Briefly, we incubated live cells with EdU (20 μM) for 1 hr prior to fixation, and stained nuclei according to the manufacturer's guidelines together with anti-MYOGENIN (Santa Cruz, catalog #sc576, 1:250) to assay differentiation. […] We quantified EdU positive cells using the MetaMorph Image Analysis software (Molecular Devices). Data analyses were blinded, where researchers performing cell scoring were unaware of the treatment condition given to sample groups analyzed.

With `CCCCC[C@H](O)/C=C/[C@H]1[C@H](O)CC(=O)[C@@H]1C/C=C\CCCC(=O)O` [PGE2, prostaglandin E2], the “increase in the number of MuSCs relative to controls” value in the test with MuSCs [1] came to 6 fold. The “specific twitch force of gastrocnemius muscles” value in the test with gastrocnemius muscles was “increase”. For the same molecule, the “proliferation of aged MuSCs” value in the test with aged MuSCs is “increase”. Also, the “proliferation of aged MuSCs in charcoal stripped serum medium” value with MuSCs [2] (aged MuSCs) is “rescued”. In addition, the “division of growth arrested MuSCs in charcoal stripped serum medium” value in the test with MuSCs [2] (young MuSCs) is “divided”. Besides, the “cell division assayed by EDU incorporation” value in the test with MuSCs [3] was “increased”.
